Results: patent US8686184B2, “Neprilysin inhibitors” (Theravance, Inc., priority 2011, dated 2014)

Target: T1, human neprilysin (EC 3.4.24.11; NEP) (Homo sapiens, UniProt P08473)
T1 construct: purchased R&D Systems, Minneapolis, Minn; 1182-ZN
Assay: In vitro enzyme inhibition assay at human NEP (fluorogenic peptide substrate)
Type: biochemical
Settings: recombinant human NEP; 37° C.; substrate Mca-D-Arg-Arg-Leu-Dap-(Dnp)-OH 10 μM; values given as ranges; read-out: pKi values at human NEP (converted)
Method: In vitro Assays for the Quantitation of Inhibitor Potencies at Human and Rat NEP, and Human ACE
The inhibitory activities of compounds at human and rat neprilysin (EC 3.4.24.11; NEP) and human angiotensin converting enzyme (ACE) were determined using in vitro assays as described below.
Recombinant human NEP and recombinant human ACE were obtained commercially (R&D Systems, Minneapolis, Minn., catalog numbers 1182-ZN and 929-ZN, respectively). The fluorogenic peptide substrate Mca-D-Arg-Arg-Leu-Dap-(Dnp)-OH (Medeiros et al. (1997) Braz. J. Med. Biol. Res. 30:1157-62; Anaspec, San Jose, Calif.) and Abz-Phe-Arg-Lys(Dnp)-Pro-OH (Araujo et al. (2000) Biochemistry 39:8519-8525; Bachem, Torrance, Calif.) were used in the NEP and ACE assays respectively.
The assays were performed in 384-well white opaque plates at 37° C. using the fluorogenic peptide substrates at a concentration of 10 μM in Assay Buffer (NEP: 50 mM HEPES, pH 7.5, 100 mM NaCl, 0.01% polyethylene glycol sorbitan monolaurate (Tween-20), 10 μM ZnSO4; ACE: 50 mM HEPES, pH 7.5, 100 mM NaCl, 0.01% Tween-20, 1 μM ZnSO4).
Test compounds were assayed over the range of concentrations from 10 μM to 20 pM. Test compounds were added to the enzymes and incubated for 30 minute at 37° C. prior to initiating the reaction by the addition of substrate. Reactions were terminated after 20 minutes of incubation at 37° C. by the addition of glacial acetic acid to a final concentration of 3.6% (v/v).
Plates were read on a fluorometer with excitation and emission wavelengths set to 320 nm and 405 nm, respectively Inhibition constants were obtained by nonlinear regression of the data using the equation (GraphPad Software, Inc., San Diego, Calif.): v=v0/[1+(I/K′)] where v is the reaction rate, v0 is the uninhibited reaction rate, I is the inhibitor concentration and K′ is the apparent inhibition constant.
Compounds of the invention were tested in this assay and found to have pKi values at human NEP as follows.

T1 sequence (P08473 52-750 limits assumed): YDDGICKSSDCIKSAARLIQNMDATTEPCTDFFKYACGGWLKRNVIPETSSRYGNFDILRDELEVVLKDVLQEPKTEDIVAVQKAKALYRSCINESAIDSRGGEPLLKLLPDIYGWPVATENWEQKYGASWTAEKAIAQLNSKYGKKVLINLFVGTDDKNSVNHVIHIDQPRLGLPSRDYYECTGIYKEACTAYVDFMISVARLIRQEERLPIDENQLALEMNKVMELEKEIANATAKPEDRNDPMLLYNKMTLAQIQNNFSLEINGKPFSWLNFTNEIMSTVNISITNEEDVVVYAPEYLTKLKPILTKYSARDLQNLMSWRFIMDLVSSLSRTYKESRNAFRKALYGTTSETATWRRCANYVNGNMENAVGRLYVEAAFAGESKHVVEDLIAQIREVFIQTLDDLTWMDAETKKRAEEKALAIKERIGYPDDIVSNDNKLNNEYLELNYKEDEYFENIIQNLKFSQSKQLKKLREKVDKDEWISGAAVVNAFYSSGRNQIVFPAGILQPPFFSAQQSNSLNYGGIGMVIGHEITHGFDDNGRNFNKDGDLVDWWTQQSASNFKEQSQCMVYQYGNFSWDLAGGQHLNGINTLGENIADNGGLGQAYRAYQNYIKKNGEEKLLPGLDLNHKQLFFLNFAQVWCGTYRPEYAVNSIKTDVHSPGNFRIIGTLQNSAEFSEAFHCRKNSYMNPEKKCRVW

Structure (SMILES) | Ki
CCc1ccc(C(=O)N[C@H](Cc2ccccc2)[C@@H](O)C(=O)O)cc1 [Example 10-32, (2R,3R)-3-(4-Ethyl-benzoylamino)-2-hydroxy-4-phenyl-butyric acid] | 12.6 to 100 nM
O=C(N[C@H](Cc1ccccc1Cl)[C@@H](O)C(=O)O)c1cc(F)c(F)c(-c2ccccc2C(=O)O)c1 [Example 3, 5′-[(1R,2R)-2-Carboxy-1-(2-chlorobenzyl)-2-hydroxy-ethylcarbamoyl]-2′,3′-difluoro-biphenyl-2-carb oxylic Acid] | ≤ 1 nM
O=C(N[C@H](Cc1ccccc1)[C@@H](O)C(=O)O)c1ccc(-c2ccccc2)c(C(=O)O)c1 [Example 10-28, 4-((1R,2R)-1-Benzyl-2-carboxy-2-hydroxy-ethylcarbamoyl)-biphenyl-2-carboxylic acid] | 12.6 to 100 nM
Cc1cc(C)n(-c2cccc(C(=O)N[C@H](Cc3ccccc3)[C@@H](O)C(=O)O)c2)n1 [Example 10-5, (2R,3R)-3-[3-(3,5-Dimethyl-pyrazol-1-yl)-benzoylamino]-2-hydroxy-4-phenyl-butyric acid] | 12.6 to 100 nM
O=C(N[C@H](Cc1ccccc1Cl)[C@@H](O)C(=O)O)c1ccc(N2N=C(C(F)(F)F)CC2=O)cc1 [Example 6-14, (2R,3R)-4-(2-Chlorophenyl)-2-hydroxy-3-[4-(5-oxo-3-trifluoromethyl-4,5-dihydro-pyrazol-1-yl)-benzoylamino]-butyric acid] | 12.6 to 100 nM
COc1ccc(C(=O)O)c(-c2cccc(C(=O)N[C@H](Cc3ccccc3)[C@@H](O)C(=O)O)c2)c1 [Example 10-13, 3′-((1R,2R)-1-Benzyl-2-carboxy-2-hydroxy-ethylcarbamoyl)-5-methoxy-biphenyl-2-carboxylic acid] | 12.6 to 100 nM
Cc1cc(C)n(-c2cc(C(=O)N[C@H](Cc3ccccc3)[C@@H](O)C(=O)O)ccc2C)n1 [Example 10-7, (2R,3R)-3-[3-(3,5-Dimethylpyrazol-1-yl)-4-methylbenzoylamino]-2-hydroxy-4-phenyl-butyric acid] | 12.6 to 100 nM
CC1=NN(Cc2ccc(C(=O)N[C@H](Cc3ccccc3Cl)[C@@H](O)C(=O)O)cc2)C(=O)C1 [Example 6-19, (2R,3R)-4-(2-Chlorophenyl)-2-hydroxy-3-[4-(3-methyl-5-oxo-4,5-dihydro-pyrazol-1-ylmethyl)-benzoylamino]-butyric acid] | 12.6 to 100 nM
Cc1cc(C)n(-c2ccc(C(=O)N[C@H](Cc3ccccc3)[C@@H](O)C(=O)O)cc2)n1 [Example 10-4, (2R,3R)-3-[4-(3,5-Dimethyl-pyrazol-1-yl)-benzoylamino]-2-hydroxy-4-phenyl-butyric acid] | 12.6 to 100 nM
O=C(CCCc1cc(F)ccc1C(=O)O)N[C@H](Cc1ccccc1Cl)[C@@H](O)C(=O)O [Example 2-1, 2-{3-[(1R,2R)-2-Carboxy-1-(2-chlorobenzyl)-2-hydroxy-ethylcarbamoyl]-propyl}-4-fluoro-benzoic acid] | ≤ 1 nM
CCCCOC(=O)Nc1cc(C(=O)N[C@H](Cc2ccccc2)[C@@H](O)C(=O)O)ccc1CC [Example 10-79, (2R,3R)-3-(3-Butoxycarbonylamino-4-ethyl-benzoylamino)-2-hydroxy-4-phenyl-butyric acid] | 12.6 to 100 nM
Cc1cc(C(=O)N[C@H](Cc2ccccc2Cl)[C@@H](O)C(=O)O)ccc1-c1ccccc1C(=O)O [Example 6-8, 4′-[(1R,2R)-2-Carboxy-1-(2-chlorobenzyl)-2-hydroxy-ethylcarbamoyl]-2′-methyl-biphenyl-2-carboxylic acid] | 1.26 to 10 nM
O=C(N[C@H](Cc1ccccc1)[C@@H](O)C(=O)O)c1cccc(-c2cc(F)ccc2C(=O)O)c1 [Example 10-14, 3′-((1R,2R)-1-Benzyl-2-carboxy-2-hydroxy-ethylcarbamoyl)-5-fluoro-biphenyl-2-carboxylic acid] | 12.6 to 100 nM
Cc1cc(C(=O)N[C@H](Cc2ccccc2)[C@@H](O)C(=O)O)cc(-c2ccccc2C(=O)O)c1 [Example 10-27, 3′-((1R,2R)-1-Benzyl-2-carboxy-2-hydroxy-ethylcarbamoyl)-5′-methyl-biphenyl-2-carboxylic acid] | 12.6 to 100 nM

Other lines, results leading:

Ki | Structure (SMILES)
12.6 to 100 nM | CCc1ccc(C(=O)N[C@@H](CC(=O)O)Cc2ccccc2Cl)cc1-n1c(=O)[nH]c2sc(C)cc2c1=O [Example 13-10, (R)-4-(2-Chlorophenyl)-3-[4-ethyl-3-(6-methyl-2,4-dioxo-1,4-dihydro-2H-thieno[2,3-d]pyrimidin-3-yl)-benzoylamino]-butyric acid]
12.6 to 100 nM | CCCc1ccc(C(=O)N[C@H](Cc2ccccc2)[C@@H](O)C(=O)O)cc1 [Example 10-33, (2R,3R)-2-Hydroxy-4-phenyl-3-(4-propyl-benzoylamino)-butyric acid]
12.6 to 100 nM | CCNC(=O)Nc1cc(C(=O)N[C@H](Cc2ccccc2)[C@@H](O)C(=O)O)ccc1CC [Example 10-72, (2R,3R)-3-[4-Ethyl-3-(3-ethyl-ureido)-benzoylamino]-2-hydroxy-4-phenyl-butyric acid]
12.6 to 100 nM | CCc1ccc(C(=O)N[C@H](Cc2ccccc2)[C@@H](O)C(=O)O)cc1NC(=O)Nc1sccc1C(=O)O [Example 10-76, 2-{3-[5-((1R,2R)-1-Benzyl-2-carboxy-2-hydroxy-ethylcarbamoyl)-2-ethyl-phenyl]-ureido}-thiophene-3-carb oxylic acid]
12.6 to 100 nM | O=C(O)Cc1cccc(-c2ccc(C(=O)N[C@H](Cc3ccccc3)[C@@H](O)C(=O)O)cc2)c1 [Example 10-49, (2R,3R)-3-[(3′-Carboxymethyl-biphenyl-4-carbonyl)-amino]-2-hydroxy-4-phenyl-butyric acid]
12.6 to 100 nM | CC1=NN(c2ccc(C(=O)N[C@@H](CC(=O)O)Cc3ccccc3Cl)cc2Cl)C(=O)C1 [Example 13-5, (R)-3-[3-Chloro-4-(3-methyl-5-oxo-4,5-dihydro-pyrazol-1-yl)-benzoylamino]-4-(2-chloro-phenyl)-butyric acid]
12.6 to 100 nM | CC1=NN(c2ccc(C(=O)N[C@H](Cc3ccccc3)[C@@H](O)C(=O)O)cc2)C(=O)C1 [Example 10-41, (2R,3R)-2-Hydroxy-3-[4-(3-methyl-5-oxo-4,5-dihydro-pyrazol-1-yl)-benzoylamino]-4-phenyl-butyric acid]
≤ 1 nM | CCc1ccc(C(=O)N[C@H](Cc2ccccc2)[C@@H](O)C(=O)O)cc1NC(=O)Nc1sc(C)cc1C(=O)O [Example 10-77, 2-{3-[5-((1R,2R)-1-Benzyl-2-carboxy-2-hydroxy-ethylcarbamoyl)-2-ethyl-phenyl]-ureido}-5-methyl-thiophene-3-carboxylic acid]
12.6 to 100 nM | O=C(O)Cc1ccc(-c2ccc(C(=O)N[C@H](Cc3ccccc3)[C@@H](O)C(=O)O)cc2)cc1 [Example 10-50, (2R,3R)-3-[(4′-Carboxymethyl-biphenyl-4-carbonyl)-amino]-2-hydroxy-4-phenyl-butyric acid]
12.6 to 100 nM | CCc1ccc(C(=O)N[C@H](Cc2ccccc2)[C@@H](O)C(=O)O)cc1NC(=O)CC(=O)O [Example 10-67, (2R,3R)-3-[3-(2-Carboxy-acetylamino)-4-ethyl-benzoylamino]-2-hydroxy-4-phenyl-butyric acid]
1.26 to 10 nM | Cc1ccc(C(=O)N[C@@H](CC(=O)O)Cc2ccccc2Cl)cc1-c1ccccc1CC(=O)O [Example 13-3, (R)-3-[(2′-Carboxymethyl-6-methyl-biphenyl-3-carbonyl)-amino]-4-(2-chloro-phenyl)-butyric acid]
12.6 to 100 nM | CCCNc1ccc(C(=O)N[C@H](Cc2ccccc2)[C@@H](O)C(=O)O)cc1Cl [Example 10-56, (2R,3R)-3-(3-Chloro-4-propylamino-benzoylamino)-2-hydroxy-4-phenyl-butyric acid]
12.6 to 100 nM | CCc1ccc(C(=O)N[C@H](Cc2ccccc2)[C@@H](O)C(=O)O)cc1NC(=O)c1cccnc1 [Example 10-69, (2R,3R)-3-{4-Ethyl-3-[(pyridine-3-carbonyl)-amino]-benzoylamino}-2-hydroxy-4-phenyl-butyric acid]
1.26 to 10 nM | Cc1ccc(C(=O)N[C@@H](CC(=O)O)Cc2ccccc2Cl)cc1-c1ccccc1C(=O)O [Example 12, 5′-[(R)-2-Carboxy-1-(2-chloro-benzyl)-ethylcarbamoyl]-2′-methyl-biphenyl-2-carboxylic Acid]
12.6 to 100 nM | CCCCCc1ccc(C(=O)N[C@H](Cc2ccccc2)[C@@H](O)C(=O)O)cc1 [Example 10-38, (2R,3R)-2-Hydroxy-3-(4-pentyl-benzoylamino)-4-phenyl-butyric acid]
12.6 to 100 nM | O=C(O)CCc1cccc(C(=O)N[C@H](Cc2ccccc2)[C@@H](O)C(=O)O)c1 [Example 10-59, (2R,3R)-3-[3-(2-Carboxy-ethyl)-benzoylamino]-2-hydroxy-4-phenyl-butyric acid]
